# Laboratory results from patent publication US4335041A, “High sensitivity assays for angiotensin converting enzyme” (Ventrex Laboratories, Inc., priority 1980, dated 1982).
# Peptide text beside a SMILES is read from it. * marks the point of attachment. Bz = O=C(c1ccccc1)*
# What was measured:
# [1] = tested on: enzyme isolated from hog lung; details: cited from earlier work
# Guinea pig urinary ACE = molecular target: T1, Guinea pig urinary ACE (Cavia porcellus, UniProt H0UWL7); experiment: Sulfate and chloride effects on substrate hydrolysis (Example 3); type: biochemical
# T1 sequence (H0UWL7 33-1302): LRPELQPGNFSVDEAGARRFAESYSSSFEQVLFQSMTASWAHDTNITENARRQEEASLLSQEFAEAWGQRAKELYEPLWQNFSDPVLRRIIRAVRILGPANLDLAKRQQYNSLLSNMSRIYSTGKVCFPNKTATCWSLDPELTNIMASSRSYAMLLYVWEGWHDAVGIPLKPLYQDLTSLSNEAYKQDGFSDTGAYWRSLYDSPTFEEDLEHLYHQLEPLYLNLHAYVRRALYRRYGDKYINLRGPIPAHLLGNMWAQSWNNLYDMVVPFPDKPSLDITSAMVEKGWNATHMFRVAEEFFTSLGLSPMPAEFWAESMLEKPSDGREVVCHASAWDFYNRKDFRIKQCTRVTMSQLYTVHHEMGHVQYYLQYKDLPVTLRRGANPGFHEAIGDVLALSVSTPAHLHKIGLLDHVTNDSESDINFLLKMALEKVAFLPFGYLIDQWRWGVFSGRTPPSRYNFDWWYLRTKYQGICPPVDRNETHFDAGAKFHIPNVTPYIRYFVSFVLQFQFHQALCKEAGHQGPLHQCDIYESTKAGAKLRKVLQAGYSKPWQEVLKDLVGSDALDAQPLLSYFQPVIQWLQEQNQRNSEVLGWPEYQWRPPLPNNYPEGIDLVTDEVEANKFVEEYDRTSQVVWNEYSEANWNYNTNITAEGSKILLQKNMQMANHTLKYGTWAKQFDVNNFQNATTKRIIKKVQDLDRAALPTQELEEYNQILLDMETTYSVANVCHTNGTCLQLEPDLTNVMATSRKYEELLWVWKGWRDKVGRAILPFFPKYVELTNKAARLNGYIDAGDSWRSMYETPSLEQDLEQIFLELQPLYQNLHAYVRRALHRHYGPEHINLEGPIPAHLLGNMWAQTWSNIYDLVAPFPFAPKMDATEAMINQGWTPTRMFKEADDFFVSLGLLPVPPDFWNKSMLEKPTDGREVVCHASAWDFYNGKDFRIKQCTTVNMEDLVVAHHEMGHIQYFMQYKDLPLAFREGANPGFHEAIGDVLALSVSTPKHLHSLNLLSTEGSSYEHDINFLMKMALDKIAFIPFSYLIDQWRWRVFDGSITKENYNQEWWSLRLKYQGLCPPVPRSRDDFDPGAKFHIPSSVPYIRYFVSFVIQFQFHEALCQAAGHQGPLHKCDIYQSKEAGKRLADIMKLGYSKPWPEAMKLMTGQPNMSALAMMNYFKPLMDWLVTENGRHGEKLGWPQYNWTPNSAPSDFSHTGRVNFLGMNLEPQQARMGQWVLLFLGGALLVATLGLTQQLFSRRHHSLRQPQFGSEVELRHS
# Procedure: ^3 H-HipHisLeu prepared as described in Example 2 and ^3 H-benzoylPheAlaPro, prepared as described in Example 5, were used as substrates for Guinea pig urinary ACE, prepared as described in Example 1. […] All incubations were carried out at 37° C. for 10 minutes. Enzyme was diluted in the reaction buffer to provide not more than 15% hydrolysis during the 10 minute incubation. Enzyme, 50 μl, was mixed with 50 μl ^3 H-HipHisLeu, 0.2 mM, having 150,000 total counts pr minute (cpm), or with ^3 H-benzoylPheAlaPro having 10,000 cpm to 200,000 cpm. Reactions were carried out in the presence of 0.1 M NaCl or in the absence of NaCl, with varying amounts of Na2 SO4 added.
# ACE from rabbit lung = details: sodium chloride removed; cited from earlier work
# Guinea pig serum ACE = molecular target: T2, Guinea pig serum ACE (Cavia porcellus, UniProt H0UWL7); experiment: Kinetics of sulfate-stimulated HipHisLeu hydrolysis (Example 4); type: biochemical
# T2 sequence (H0UWL7 33-1234): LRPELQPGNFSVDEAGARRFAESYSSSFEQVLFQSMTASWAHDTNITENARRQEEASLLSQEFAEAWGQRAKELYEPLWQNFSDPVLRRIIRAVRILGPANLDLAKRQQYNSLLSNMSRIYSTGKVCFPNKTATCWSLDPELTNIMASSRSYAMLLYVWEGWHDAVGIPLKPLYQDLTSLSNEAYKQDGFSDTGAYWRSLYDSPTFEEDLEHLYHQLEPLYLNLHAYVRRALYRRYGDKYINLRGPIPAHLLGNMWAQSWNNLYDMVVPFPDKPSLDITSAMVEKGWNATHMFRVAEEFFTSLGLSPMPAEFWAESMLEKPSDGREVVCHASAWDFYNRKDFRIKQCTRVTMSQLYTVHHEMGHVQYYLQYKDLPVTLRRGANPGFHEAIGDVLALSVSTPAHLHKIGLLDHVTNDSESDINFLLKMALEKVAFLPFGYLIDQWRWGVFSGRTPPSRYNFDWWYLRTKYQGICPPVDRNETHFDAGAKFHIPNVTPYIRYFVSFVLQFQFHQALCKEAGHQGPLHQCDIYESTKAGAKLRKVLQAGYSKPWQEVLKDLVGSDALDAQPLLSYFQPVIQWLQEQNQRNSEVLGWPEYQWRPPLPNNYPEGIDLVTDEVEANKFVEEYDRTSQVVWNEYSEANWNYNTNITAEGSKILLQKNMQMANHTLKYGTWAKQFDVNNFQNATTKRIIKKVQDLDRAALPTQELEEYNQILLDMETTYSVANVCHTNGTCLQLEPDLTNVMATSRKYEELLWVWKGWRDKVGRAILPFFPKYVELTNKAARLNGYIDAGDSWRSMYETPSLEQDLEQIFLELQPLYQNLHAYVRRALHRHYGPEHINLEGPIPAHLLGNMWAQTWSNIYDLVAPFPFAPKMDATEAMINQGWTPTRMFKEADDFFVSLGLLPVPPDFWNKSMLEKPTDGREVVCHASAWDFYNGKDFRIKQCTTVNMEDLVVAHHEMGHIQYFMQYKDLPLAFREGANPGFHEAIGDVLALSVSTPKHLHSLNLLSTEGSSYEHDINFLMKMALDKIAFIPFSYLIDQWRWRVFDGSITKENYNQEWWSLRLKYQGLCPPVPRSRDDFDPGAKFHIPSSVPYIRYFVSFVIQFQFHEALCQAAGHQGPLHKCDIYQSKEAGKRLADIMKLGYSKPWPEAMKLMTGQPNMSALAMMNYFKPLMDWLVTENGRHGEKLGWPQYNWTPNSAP
# Procedure: In each assay, 50 μl of Guinea pig serum diluted 1-20 (v/v) in the reaction buffer was mixed with 50 μl of buffer containing sufficient ^3 H-HipHisLeu to provide approximately 100,000 cpm total, together with sufficient unlabeled HipHisLeu to produce the desired substrate concentrations, as indicated in Table 2. […] The reaction mixture was then extracted with 1 ml ethyl acetate. 500 μl of the ethyl acetate fraction was sampled and counted in a scintillation counter.
# [2] = Solvent extraction from acidified reaction mixture; type: physicochemical
# Excerpt: While a variety of organic solvents may be suitable for the extraction step, it is preferred to employ toluene.
# ACE = experiment: Response of 3H-benzoylPheAlaPro hydrolysis to added NaCl; type: biochemical; details: 0.05 M added sodium chloride, 0.05 M Hepes pH 8.0
# Procedure: An even more sensitive assay for ACE activity has been developed using the novel compound ^3 H-benzoylPheAlaPro as substrate. This new substrate can be used to assay ACE in human urine in incubations as short as 15 minutes. The response of this substrate to ions is strikingly different from the response of HipHisLeu. […] This difficulty has been solved by the proper choice of extracting solvent. While a variety of organic solvents may be suitable for the extraction step, it is preferred to employ toluene. Approximately 88% of ^3 H-benzoylPhe enters the toluene phase while only 6% of the unhydrolyzed substrate enters the toluene phase, when toluene and the acidified reaction mixture are in approximately equal volumes at room temperature.
# [3] = sulfate 0.6 M, 0.1 M chloride, pH 8
smiles,measurement,setting,value
O=C(O)CNC(=O)CNC(=O)CNC(=O)c1ccccc1 [HipGlyGly] (Bz-Gly-Gly-Gly-OH),hydrolysis in the absence of NaCl,"[1]; no NaCl, Na2SO4 0.001 M to 0.6 M",no hydrolysis
same,decrease of Km by sulfate,[1]; [3],about 15%
same,increase of Vmax by sulfate,[1]; [3],about 5 fold
CC(C)C[C@H](NC(=O)[C@H](Cc1c[nH]cn1)NC(=O)CNC(=O)c1ccccc1)C(=O)O [HipHisLeu] (Bz-Gly-His-Leu-OH),Reaction Velocity - Percent of Substrate Hydrolyzed in 10 minutes,"Guinea pig urinary ACE; 0.05M Hepes pH 8.0, 0.0M NaCl, Na2SO4 0",0%
same,Reaction Velocity - Percent of Substrate Hydrolyzed in 10 minutes,"Guinea pig urinary ACE; 0.05M Hepes pH 8.0, 0.0M NaCl, Na2SO4 0.1",0%
same,Reaction Velocity - Percent of Substrate Hydrolyzed in 10 minutes,"Guinea pig urinary ACE; 0.05M Hepes pH 8.0, 0.0M NaCl, Na2SO4 0.2",0%
same,Reaction Velocity - Percent of Substrate Hydrolyzed in 10 minutes,"Guinea pig urinary ACE; 0.05M Hepes pH 8.0, 0.0M NaCl, Na2SO4 0.3",0%
same,Reaction Velocity - Percent of Substrate Hydrolyzed in 10 minutes,"Guinea pig urinary ACE; 0.05M Hepes pH 8.0, 0.0M NaCl, Na2SO4 0.4",0.1%
same,Reaction Velocity - Percent of Substrate Hydrolyzed in 10 minutes,"Guinea pig urinary ACE; 0.05M Hepes pH 8.0, 0.0M NaCl, Na2SO4 0.5",0.1%
same,Reaction Velocity - Percent of Substrate Hydrolyzed in 10 minutes,"Guinea pig urinary ACE; 0.05M Hepes pH 8.0, 0.0M NaCl, Na2SO4 0.6",0.25%
same,Reaction Velocity - Percent of Substrate Hydrolyzed in 10 minutes,"Guinea pig urinary ACE; 0.05M Hepes pH 8.0, 0.0M NaCl, Na2SO4 0.7",0.25%
same,Reaction Velocity - Percent of Substrate Hydrolyzed in 10 minutes,"Guinea pig urinary ACE; 0.05M Hepes pH 8.0, 0.0M NaCl, Na2SO4 0.75",0.25%
same,Reaction Velocity - Percent of Substrate Hydrolyzed in 10 minutes,"Guinea pig urinary ACE; 0.05M Hepes pH 8.0, 0.0M NaCl, Na2SO4 0.8",0.25%
same,Reaction Velocity - Percent of Substrate Hydrolyzed in 10 minutes,"Guinea pig urinary ACE; 0.05M Hepes pH 8.0, 0.0M NaCl, Na2SO4 0.9",0.7%
same,Reaction Velocity - Percent of Substrate Hydrolyzed in 10 minutes,"Guinea pig urinary ACE; 0.05M Hepes pH 8.0, 0.0M NaCl, Na2SO4 1.2",3.9%
same,Reaction Velocity - Percent of Substrate Hydrolyzed in 10 minutes,"Guinea pig urinary ACE; 0.05M Hepes pH 8.0, 0.1M NaCl, Na2SO4 0",0.3%
same,Reaction Velocity - Percent of Substrate Hydrolyzed in 10 minutes,"Guinea pig urinary ACE; 0.05M Hepes pH 8.0, 0.1M NaCl, Na2SO4 0.4",4.1%
same,Reaction Velocity - Percent of Substrate Hydrolyzed in 10 minutes,"Guinea pig urinary ACE; 0.05M Hepes pH 8.0, 0.1M NaCl, Na2SO4 0.6",8.3%
same,inhibition on removal of sodium chloride from the reaction medium,ACE from rabbit lung,92%
same,reduction of Km by sulfate,Guinea pig serum ACE; 0.75 M Na2SO4 in reaction mixture containing 0.1 M NaCl,about 15 fold
same,decrease in Km by sulfate,Guinea pig serum ACE; sulfate ion 0.75-1.1 M,14 fold
"C[C@H](NC(=O)[C@H](Cc1ccccc1)NC(=O)c1ccccc1)C(=O)N1CCC[C@H]1C(=O)O [benzoylPheAlaPro, benzoyl-Phe-Ala-Pro] (Bz-Phe-Ala-Pro-OH)",Reaction Velocity - Percent of Substrate Hydrolyzed in 10 minutes,"Guinea pig urinary ACE; 0.05 Hepes pH 8.0, 0.1 M NaCl, Na2SO4 0",4.4%
same,Reaction Velocity - Percent of Substrate Hydrolyzed in 10 minutes,"Guinea pig urinary ACE; 0.05 Hepes pH 8.0, 0.1 M NaCl, Na2SO4 0.1",5.0%
same,Reaction Velocity - Percent of Substrate Hydrolyzed in 10 minutes,"Guinea pig urinary ACE; 0.05 Hepes pH 8.0, 0.1 M NaCl, Na2SO4 0.5",5.6%
same,extraction into ethyl acetate,[2]; reaction terminated with dilute hydrochloric acid,extracted almost quantitatively
same,fraction entering the toluene phase,"[2]; toluene and acidified reaction mixture in approximately equal volumes, room temperature",6%
same,increase of apparent reaction velocity by added NaCl,ACE,approximately 3 fold
